Converted amounts (≈) assume the structure as drawn.

The test concerns resistant strain of Pythium sp. The test is described as follows: In vitro sensitivity of a resistant strain of Pythium sp. (mycelium growth, optical density at 590 nm). Format: cell-based. To be noted: 168 h, 500 spores/mL, 7 days at 20° C., read-out: EC50 (effective concentration of the active ingredient which reduces the growth of the phytopathogen by 50%).

For the compound `CCCCCCCCO` [octanol, octan-1-ol], the EC50 came to 1.3 ng/mL (≈ 9.98 nM).

These data come from patent US20170049100A1 (priority 2014, published 2017).
